Laboratory results as given in article PMC9114338 (Scientific Reports, 2022).
Read-outs that look alike come from different tables or passages of the source.

Assays:
[1] = MALDI imaging mass spectrometry of dermal tissues adjacent to the implant; type: in vivo, C57BL/6 J mice; settings: for Detection by MALDI-IMS in dermal tissue samples during implant TAF delivery: all medicated specimens; for Spatial distribution in dermal tissue sections (MALDI-IMS): high-releasing (0.58 mg d^-1) implants, D3–D28; for MALDI-IMS signal and localization with implant in situ: low-releasing (0.23 mg d^-1) implants, Day 14, 100 µm resolution
Procedure: The used implants, the surrounding capsule, and the encasing dermal tissue were removed as a block in accordance with ISO 10993-6 guidelines, processed and stored, as described elsewhere. Briefly, the capsule was cut longitudinally and rolled open, taking care not to disrupt the architecture of the tissue or to damage the used implant. A portion of the tissue specimen was placed into 4% paraformaldehyde solution (phosphate-buffered at pH 7.2), and stored at 4 °C, for histopathology and two other portions were flash-frozen in liquid nitrogen for drug concentration analysis as well as for drug spatial distribution analysis by MALDI-IMS (vide infra).
Frozen mouse tissue specimens were shipped to Vanderbilt University on dry ice and stored at − 80 °C prior to use. Tissues were removed from the − 80 °C freezer and placed in a − 20 °C cryostat (CM 1900, Leica Biosystems, Buffalo Grove, IL) and sectioned. Tissue samples that had been prepared via removal of the used implant were affixed to the cryostat chuck with optimal cutting temperature (OCT) polymer and were cut on the cryostat into 12 µm thick sections for imaging mass spectrometry and H&E staining.
Tissue samples that still contained the implant in place were embedded in OCT prior to sectioning. In order to minimize the artifactual signal from the TAF powder after sectioning (the act of the cryostat blade cutting through an intact implant distributed residual TAF powder that still remained in the used implant onto the surrounding tissue section), house vacuum was used to remove visible TAF powder, followed by lightly running nitrogen gas over the plate to remove any additional loose powder from the slide.
The tissue sections were thaw-mounted onto indium-tin oxide coated glass slides for imaging (Delta Technologies, Ltd, Loveland, CO). The tissue sections were left to dry for at least 15 min in a desktop vacuum desiccator prior to matrix application. […] For 9AA, four passes were applied at 85 °C in a crisscross pattern, with a 700 mm min^-1 stage velocity, 2 mm track spacing, and 0.15 mL min^-1 flow rate. For DHB the same method was used, except eight passes were applied and the stage velocity was 1300 mm min^-1.
Flash-frozen dermal tissue samples collected adjacent to the TAF implants and sectioned were analyzed with a linear ion trap mass spectrometer equipped with a MALDI source and a nitrogen laser (LTQ XL, Thermo Scientific, Waltham, MA). The structures of compounds of interest are shown in Scheme 1. Targeted MS/MS methods were optimized for each compound using authentic samples as standards, with the final parameters shown in Appendix A under Supplementary Information. Pseudo-selected reaction monitoring mode was used for imaging by isolating precursor ions with a 1 Da window, fragmenting them, and acquiring full product ion mass spectra at each pixel. TFV, TFV-MP, and TFV-DP were analyzed in negative ion mode, while TAF, Metabolite X, and Metabolite Y were analyzed in positive ion mode. In most cases, after imaging, the matrix was removed and the tissue section that had been imaged was H&E stained for better image registration with tissue morphology. Standard images were acquired at either 50 or 100 µm spatial resolution. Reconstructed ion images were generated in ImageQuest software (Thermo Scientific, Waltham, MA) by plotting the intensity of the diagnostic fragment ion or ions as a function of location across the tissue surface.

[2] = set-up: method as in PMID 23600365; settings: healthy individuals; cited from earlier work
[3] = Subdermal TAF implant pharmacokinetic mouse study; type: in vivo; settings: low- and high-releasing implants
Description: Two study groups are described here: one low-releasing and one high-releasing implant group. Animals (N = 3 per implant group) were sacrificed at the following timepoints: Day 3, 7, 14, 21, and 28 (15 mice total per implant group).

[4] = Intravenous TAF pharmacokinetic mouse study (plasma, PBMC, tissue homogenate); type: in vivo, C57BL/6 J mice; settings: for half-life: C57BL/6 J, mouse, iv, 0.5 mg
Procedure: C57BL/6 J Mice (9 groups of 4 animals each; 36 mice total) were administered the study product (0.5 mg dose, 0.1 mL) by intravenous (IV) injection. Animals (N = 4) were sacrificed at the following timepoints: Day 1 (1, 3, 6, 12, 24 h), Day 2, 4, 8, and 14. Blood was collected by exsanguination along with select tissue specimens (vide infra).
The isolation of plasma and PBMCs from blood samples was carried out in a laminar flow hood using aseptic techniques, and the entire process was completed in under 45 min to minimize analyte metabolism. Blood was transferred into collection tubes containing sodium citrate (final concentration, 0.4% w/v), diluted using one volume equivalent of 1 × PBS solution, and mixed by inversion. The minimum final volume was 4.0 mL. Prior to the addition of blood samples, Ficoll-Paque media (MilliporeSigma, Burlington, MA, 3.2 mL) was transferred into a 12 mL LeucoSep tube (Greiner, Monroe, NC) and centrifuged at 1000 g for 20 s at room temperature, causing the media to settle just below the porous barrier. The homogenous, diluted blood-PBS mixture was transferred into the prepared LeucoSep tube and centrifuged at 1000 g for 10 min at room temperature, resulting in the formation of three layers above the porous barrier: (A) top layer, consisting of the plasma fraction; (B) middle, interface layer, containing the PBMCs; and (C) thin lower layer, just above the barrier, consisting of Ficoll-Paque media. Layer A (plasma) was transferred to empty 1.5 mL microfuge tubes in 0.5 mL aliquots, and flash-frozen in liquid nitrogen. Layer B (PBMCs) was transferred into an empty 15 mL centrifuge tube and PBS added to the 12 mL mark, followed by gentle inversion mixing. The suspension was centrifuged at 400 g for 15 min, the supernatant removed, and the pellet resuspended in PBS (10 mL) by gentle pipetting. An aliquot (10 µL) was removed from the suspension for cell counting and the remaining sample was centrifuged at 400 g for 15 min. The supernatant was removed without disturbing the cell pellet, which was treated with ice-cold 70% v/v methanol in molecular-grade water (1.0 mL). The mixture was mixed lightly by vortex agitation to lyse the cells, followed by transfer to a 2.0 mL cryovial that was flash-frozen in liquid nitrogen.
Vaginal, rectal, spleen, and thymus tissue samples were collected from sacrificed animals at Day 1 (12, 24 h), Day 4, and 8; rectal tissue samples were not collected at 12 h. The samples were transferred into pre-weighed sample tubes, weighed, and flash-frozen in liquid nitrogen.
(§1) PBMC results were normalized to the number of cells and reported as fmol/10^6 cells or as intracellular concentration based on cell volume, in nM. Tissue results were normalized to sample mass and reported as ng mg^-1 or fmol mg^-1.

HIV-1 [5] = settings: cited from earlier work
[6] = Subcutaneous TAF injection pharmacokinetic mouse study; type: in vivo, C57BL/6 J mice; settings: C57BL/6 J, PBMCs, 0.5 mg, read-out: PBMC TFV-DP t1/2 (converted)
Procedure: C57BL/6 J Mice (12 groups of 4 animals each; 48 mice total) were administered the study product (0.5 mg dose, 0.1 mL) described above by subcutaneous (SQ) injection. Animals (N = 4) were sacrificed at the following timepoints: Day 1 (1, 3, 6, 12, 24 h), Day 2, 4, 6, 8, 10, 12, and 14. Blood was collected by exsanguination and processed as described above.
as §1

[7] = Simulation of plasma TFV and PBMC TFV-DP following TAF delivery from implants; set-up: species or system C57BL/6 J mice; settings: dose-dependent
Procedure: All other parameters were unmodified from Table 2. Our starting hypothesis was that the difference between SQ injection and long-acting SQ delivery via implant would be strictly related to the implant release rate. Once the drug was released from the device, it was hypothesized to be transferred from the SQ pocket to body circulation via the same mechanism and governed by the same parameters as by SQ injection, and therefore the same model was employed.
Compartmental analyses were performed in Phoenix software (version 8.3, Certara, Princeton, NJ) using a published, simple, structural PK model describing the TFV kinetics. IV and SQ data were modeled simultaneously. Due to the destructive nature of the blood sampling, data were modeled using a naïve-pooled algorithm, without inter-animal variability. The resulting systemic parameters, along with the implant in vivo release rates on a per animal basis, were used to co-model (predict) concentration data in mice following during implant dosing.

OAT1 = settings: in vitro studies; cited from earlier work
OAT3 = settings: in vitro studies; cited from earlier work
[8] = type: in vivo, C57BL/6 J mice; settings: Day 28, pathologist evaluation, low and high doses
Procedure: Toxicity was evaluated by clinical observations, cage-side observations (twice daily), and body weight (weekly). Formaldehyde-fixed dermal tissue specimens (one per animal) were paraffin-embedded, sectioned, and H&E stained using established methods (JIT Labs, jit-labs.com). The slides were evaluated for microscopic findings by a certified pathologist (Vet Path Services, Inc., Mason, OH). Histopathology grades were assigned as grade 1 (minimal), grade 2 (mild), grade 3 (moderate), grade 4 (marked), or grade 5 (severe) based on an increasing extent of overall change.

HIV-1 [9] = test system: HIV-1
Procedure: The BLT hu-mouse model has been used extensively in efficacy studies involving HIV-1 prevention research[54]–[58]. […] The mice were challenged with HIV-1 either rectally or vaginally 6 h post dosing and monitored for infection status for 12 weeks.
The generation of BLT hu-mice was performed as described in Baum et al.[58], and the references contained therein.
Vaginal or rectal challenge with HIV-1 was performed 6 h after dosing and HIV-1 infection status was monitored by quantifying viral RNA concentration in peripheral blood (plasma) at 1, 2, 3, 6, and 12 weeks post challenge as fully described in Baum et al.[58], and the references contained therein.

[10] = rapidly converts to TFV; cited from earlier work
[11] = cited from earlier work
[12] = rat, in vivo; cited from earlier work
[13] = oral TAF 6 h before rectal HIV-1 challenge
[14] = oral TAF 6 h before vaginal HIV-1 challenge

In the case of C[C@H](Cn1cnc2c(N)ncnc21)OC[P@@](=O)(O)N[C@@H](C)C(=O)O [Metabolite X], the “Detection by MALDI-IMS in dermal tissue samples during implant TAF delivery” value (“Detection by MALDI-IMS” for short) [1] is reported as “detected”, the “Spatial distribution in dermal tissue sections (MALDI-IMS)” value (“Spatial distribution” for short) [1] is reported as “localized close to the implant” and the “MALDI-IMS signal and localization with implant in situ” value (shortened to “MALDI-IMS signal and localization”) [1] is reported as “localized close to the implant”.

For C[C@H](Cn1cnc2c(N)ncnc21)OCP(=O)(O)OP(=O)(O)OP(=O)(O)O [TFV-DP, TFV diphosphate], the “Intracellular (PBMC) TFV-DP half-life” value [2] is listed as 48 h, the “Share of total TFV species present as TFV-DP, dermal tissue adjacent to TAF implants” value [3] is listed as “less than 1%” and the half-life ([4]; PBMCs, read-out: PBMC TFV-DP t1/2 (converted)) is listed as 41 h. For the same compound, the “Share of total TFV present as TFV-DP, vaginal tissue” value ([4]; IV TAF dosing) was 5.1%, the “Median vaginal x(TFV-DP) lower than rectal, spleen, thymus” value ([4]; IV TAF, depending on the compartment) was 4.7–6.7 fold and the half-life ([4]; female, rectal tissue, read-out: Terminal half-life in rectal tissue (NCA) (converted)) was 26.4 h. The half-life ([4]; female, spleen, read-out: Terminal half-life in spleen (NCA) (converted)) was 23.3 h, the half-life ([4]; female, thymus, read-out: Terminal half-life in thymus (NCA) (converted)) was 23.3 h and the half-life ([4]; female, vaginal tissue, read-out: Terminal half-life in vaginal tissue (NCA) (converted)) was 31.2 h. The “Duration of TFV-DP concentrations in tissues” value ([4]; single bolus IV TAF administration) was > 8 days, the “TFV-DP mole fraction x(TFV-DP), vaginal tissue, median (IQR)” value ([4]; tissue homogenate, IV TAF dosing) was 0.051 (0.022–0.080) and the “TFV-DP EC90 (more conservative)” value (HIV-1 [5]; corrected for TFV-DP loss on cryopreservation) was 24 to 48 fmol/10^6 cells. The “PBMC TFV-DP concentration associated with 90% protection” value (HIV-1 [5]; post hoc analysis of iPrEX, cryopreserved PBMCs) was 16 fmol/10^6 cells, the “Detection by MALDI-IMS” value [1] was “detected” and the “Spatial distribution” value [1] was “distributed homogeneously throughout the samples”. The “MALDI-IMS signal and localization” value [1] was “weak” and the half-life [6] was 17 h.

In the case of CC(C)OC(=O)[C@H](C)N[P@](=O)(CO[C@H](C)Cn1cnc2c(N)ncnc21)Oc1ccccc1 [TAF, tenofovir alafenamide], the “Exposure scaling (apparent bioavailability) from subdermal implants vs SQ or IV injection” value [7] is reported as 4–5 ×, the “Impurities formed during in vivo implant use” value (HPLC of retrieved implants) is reported as “less than 1%” and the “TAF peak area of total peak area (TAF and decomposition products) in retrieved implants” value (HPLC, irrespective of the implant group) is reported as > 98%. The “Substrate for renal uptake transporter OAT1” value (OAT1) was “not believed to be a substrate”, the “Substrate for renal uptake transporter OAT3” value (OAT3) was “not believed to be a substrate” and the “Effect of TAF dose on microscopic appearance of tissues” value [8] was “no effects”. The “Protection from rectal HIV-1 acquisition” value (HIV-1 [9]; oral TAF) was “fully protective”, the “Protection from vaginal HIV-1 acquisition” value (HIV-1 [9]; oral TAF) was “fully protective” and the ED50 (HIV-1 [9]; [13]) was 1.27 µmol. It also gave an ED90 (HIV-1 [9]; [13]) of 1.62 µmol, an ED50 (HIV-1 [9]; [14]) of 1.17 µmol and an ED90 (HIV-1 [9]; [14]) of 2.15 µmol. The “m-value ± SEM (median-effect model)” value (HIV-1 [9]; rectal) was 9.18 ± 1.94, the “m-value ± SEM (median-effect model)” value (HIV-1 [9]; vaginal) was 3.60 ± 0.22 and the “Stability in mouse plasma” value [10] was “highly unstable”. For the same compound, the “Detection by MALDI-IMS” value [1] was “detected”, the “Spatial distribution” value [1] was “localized close to the implant” and the “MALDI-IMS signal and localization” value [1] was “most abundant signals”. For the same compound, the “Efflux transport in the intestine” value [11] was “vulnerable to efflux transport”.

In the case of C[C@H](Cn1cnc2c(N)ncnc21)OCP(=O)(O)OP(=O)(O)O [TFV-MP], the “Detection by MALDI-IMS” value [1] is reported as “detected”, the “Spatial distribution” value [1] is reported as “distributed homogeneously throughout the samples” and the “MALDI-IMS signal and localization” value [1] is reported as “weak”.

In the case of O=C(O)C[C@@H]1Cc2ccc(OCCCNc3ccccn3)cc2Cc2ccccc21 [SB-265123], the “Apparent oral F” value [12] is listed as “exceeding 100%”.

In the case of CC(C)OC(=O)[C@H](C)N[P@](=O)(O)CO[C@H](C)Cn1cnc2c(N)ncnc21 [Metabolite Y], the “Detection by MALDI-IMS” value [1] is reported as “detected”, the “Spatial distribution” value [1] is reported as “localized close to the implant” and the “MALDI-IMS signal and localization” value [1] is reported as “localized close to the implant”.
